Measurements reported in US11021475B2, “Amide-substituted heterocyclic compounds useful as modulators of IL-12, IL-23 and/or IFN alpha responses” (Bristol-Myers Squibb Company, priority 2012, dated 2021).

Assays:
[1] = system: IL-23 stimulated Kit225 T cells (STAT-dependent luciferase reporter); assay: Kit225 T cell assay, IL-23-stimulated STAT-dependent luciferase reporter; type: cell-based, human; details: 20 ng/mL human recombinant IL-23, 5-6 hours; read-out: IL-23 Kit225 Reporter (IC50)
How it was run: (§1)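 Kit225 T cells carrying a stable STAT-dependent luciferase reporter, stimulated 5-6 h with 20 ng/mL human IL-23 or 200 U/mL human IFNα. Luminescence read out; % inhibition derived against unstimulated (100%) and no-inhibitor (0%) controls.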

[2] = system: IFNα stimulated Kit225 T cells (STAT-dependent luciferase reporter); assay: Kit225 T cell assay, IFNα-stimulated STAT-dependent luciferase reporter; type: cell-based, human; details: 200 U/mL human recombinant IFNα, 5-6 hours; read-out: IFNα Kit225 Reporter (IC50)
How it was run: as §1

[3] = target: His-tagged protein corresponding to amino acids 575-869 of human Tyk2 (Homo sapiens (Human), UniProt P29597); assay: Probe displacement assay (scintillation proximity, radiolabeled probe); type: binding; details: 2.5 nM Tyk2 (575-869), 40 nM [3H] probe, 30 minutes at room temperature
Chain of His-tagged protein corresponding to amino acids 575-869 of human Tyk2 (P29597 other isoform, or with tags, fused parts or gaps): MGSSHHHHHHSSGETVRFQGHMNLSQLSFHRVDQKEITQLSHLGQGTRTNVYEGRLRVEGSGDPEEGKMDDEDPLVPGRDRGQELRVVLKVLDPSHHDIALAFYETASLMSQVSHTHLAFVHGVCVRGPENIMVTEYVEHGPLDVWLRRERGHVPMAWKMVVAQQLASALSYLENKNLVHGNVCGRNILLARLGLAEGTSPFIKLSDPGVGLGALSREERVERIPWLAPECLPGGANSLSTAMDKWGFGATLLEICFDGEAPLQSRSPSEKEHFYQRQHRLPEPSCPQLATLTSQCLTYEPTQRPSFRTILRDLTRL
Experimental: The probe displacement assay is conducted as follows: In a […], test compounds along with recombinantly expressed His-tagged protein corresponding to amino acids 575-869 of human Tyk2 (sequence shown below) at 2.5 nM, 40 nM ((R)—N-(1-(3-(8-methyl-5-(methylamino)-8H-imidazo[4,5-d]thiazolo[5,4-b]pyridin-2-yl)phenyl)ethyl)-2-([^3H]methylsulfonyl)benzamide) (preparation described below) and 80 μg/mL Copper His-Tag scintillation proximity assay beads (Perkin Elmer, Catalog #RPNQ0095) in 50 mM HEPES, pH 7.5, containing 100 μg/mL bovine serum albumin and 5% DMSO were incubated for 30 minutes at room temperature.
Protein Sequence of recombinant Hig-tagged Tyk2 (575-869):
The preparation of radiolabeled probe, (R)—N-(1-(3-(8-methyl-5-(methylamino)-8H-imidazo[4,5-d]thiazolo[5,4-b]pyridin-2-yl)phenyl)ethyl)-2-([^3H]methylsulfonyl)benzamide, was performed as described below.

SMILES | IC50 [1] | IC50 [2] | EC50 [3]
CNC(=O)c1nnc(Nc2ccccn2)cc1Nc1cccc(-c2nc(C)cs2)c1OC [Example 73] | 80 nM | 50 nM | 5.21 nM
CNC(=O)c1nnc(NC(=O)C2CC2)cc1Nc1cccc(-c2ncn(CC(F)F)n2)c1OC [Example 176] | 40 nM | 20 nM | 6.35 nM
CNC(=O)c1nnc(NC(=O)C2CC2)cc1Nc1cccc(-c2cnc(C)s2)c1OC [Example 160] | 410 nM | 310 nM | 70 nM
CNC(=O)c1nnc(Nc2cc(C)n(C)n2)cc1Nc1cccc(-c2cnn(C)c2)c1OC [Example 85] | 170 nM | 50 nM | 7.36 nM
CNC(=O)c1nnc(NC(=O)C2CC2)cc1Nc1cccc(-c2nnc(C)s2)c1OC [Example 154] | 590 nM | 430 nM | 90 nM
CNC(=O)c1nnc(NC(=O)C2CC2)cc1Nc1cccc(-c2cc(C)no2)c1OC [Example 194] | 630 nM | 410 nM | 80 nM
CNC(=O)c1nnc(NC(=O)C2CC2)cc1Nc1cccc(-c2cnn(CCF)c2)c1OC [Example 186] | 170 nM | 80 nM | 60 nM
CNC(=O)c1nnc(NC(=O)C2CC2)cc1Nc1cccc(-c2ccc(C)nn2)c1OC [Example 69] | 380 nM | 160 nM | 70 nM
CS(=O)(=O)c1ccccc1Nc1cc(Nc2ccc(F)cn2)nnc1C(=O)NC1CC1 [Example 5] | 12500 nM | 6360 nM | 410 nM
CNC(=O)c1nnc(Nc2ccccn2)cc1Nc1ccccc1S(C)(=O)=O [Example 16] | 40 nM | 20 nM | 6.57 nM
CNC(=O)c1nnc(NC(=O)C2CC2)cc1Nc1ccccc1OC [Example 125] | 170 nM | 430 nM | 110 nM
CCNC(=O)c1nnc(Nc2ccc(F)cn2)cc1Nc1ccccc1S(C)(=O)=O [Example 4] | 2300 nM | 1150 nM | 130 nM
CNC(=O)c1nnc(Nc2ccncn2)cc1Nc1cccc(-c2ncn(C)n2)c1OC [Example 94] | 30 nM | 8.59 nM | 1.72 nM
CNC(=O)c1nnc(Nc2cc(COC)ccn2)cc1Nc1ccccc1S(C)(=O)=O [Example 51] | 40 nM | 20 nM | 7.19 nM
CNC(=O)c1nnc(Nc2ccc(CO)cn2)cc1Nc1cccc(-c2ncn(C)n2)c1OC [Example 102] | 40 nM | 30 nM | 1.59 nM

Second part, the compound after the results:

IC50 [1] | IC50 [2] | EC50 [3] | SMILES
1.99 nM | 3.49 nM | 6.17 nM | CNC(=O)c1nnc(Nc2ccccn2)cc1Nc1cccc(-c2ncn(C)n2)c1OC [Example 76]
8.29 nM | 3.77 nM | 1.89 nM | CNC(=O)c1nnc(Nc2cc(C)nc(COC)n2)cc1Nc1cccc(-c2ncn(C)n2)c1OC [Example 114]
30 nM | 3.67 nM | 5.72 nM | CNC(=O)c1nnc(Nc2cc(C)nc(C)n2)cc1Nc1cccc(-c2nc(C)n(C)n2)c1OC [Example 183]
30 nM | 30 nM | 7.13 nM | CNC(=O)c1nnc(Nc2ccccn2)cc1Nc1cccc(-c2nnc(C)s2)c1OC [Example 155]
20 nM | 9.39 nM | 1.28 nM | CNC(=O)c1nnc(Nc2cc(C(C)O)ccn2)cc1Nc1cccc(-c2ncn(C)n2)c1OC (stereo not drawn) [Example 84]
8.49 nM | 3.54 nM | 1.46 nM | CNC(=O)c1nnc(Nc2cc(C)nc(C)n2)cc1Nc1cccc(-c2ncn(C)n2)c1OC [Example 108]
1.01 nM | 4.42 nM | 0.877 nM | CNC(=O)c1nnc(Nc2ccccn2)cc1Nc1cccc(-c2nnn(C)n2)c1OC [Example 147]
6.59 nM | 4.3 nM | 6.95 nM | CNC(=O)c1nnc(Nc2cc(C)c(F)cn2)cc1Nc1cccc(-c2n[nH]c(C)n2)c1OC [Example 142]
7.49 nM | 3.72 nM | 1.94 nM | CNC(=O)c1nnc(Nc2cnccn2)cc1Nc1cccc(-c2ncccn2)c1OC [Example 112]
20 nM | 20 nM | 7.22 nM | CNC(=O)c1nnc(Nc2ccccn2)cc1Nc1cccc(-c2nnc(C)o2)c1OC [Example 151]
30 nM | 10 nM | 5.64 nM | CNC(=O)c1nnc(Nc2cc(NC(=O)C3CC3)nc(C)n2)cc1Nc1cccc(-c2ncn(C)n2)c1OC [Example 134]
10 nM | 5.33 nM | 1.7 nM | CNC(=O)c1nnc(NC(=O)C2CC2)cc1Nc1cccc(-c2nnn(C)n2)c1OC [Example 146]
